Data on 77 compounds can be found in PMC8869358, “High-Throughput Chemical Screening and Structure-Based Models to Predict hERG Inhibition” (Biology, 2022).

SMILES strings stand for the structures. Counter-ions that a name gives are not always drawn.

In this assay the target is hERG (Homo sapiens, UniProt Q12809). As to the kind of experiment: cell-based. The conditions noted are these: (-LOG10(IC50), µM).
Sequence of hERG (Q12809 whole entry): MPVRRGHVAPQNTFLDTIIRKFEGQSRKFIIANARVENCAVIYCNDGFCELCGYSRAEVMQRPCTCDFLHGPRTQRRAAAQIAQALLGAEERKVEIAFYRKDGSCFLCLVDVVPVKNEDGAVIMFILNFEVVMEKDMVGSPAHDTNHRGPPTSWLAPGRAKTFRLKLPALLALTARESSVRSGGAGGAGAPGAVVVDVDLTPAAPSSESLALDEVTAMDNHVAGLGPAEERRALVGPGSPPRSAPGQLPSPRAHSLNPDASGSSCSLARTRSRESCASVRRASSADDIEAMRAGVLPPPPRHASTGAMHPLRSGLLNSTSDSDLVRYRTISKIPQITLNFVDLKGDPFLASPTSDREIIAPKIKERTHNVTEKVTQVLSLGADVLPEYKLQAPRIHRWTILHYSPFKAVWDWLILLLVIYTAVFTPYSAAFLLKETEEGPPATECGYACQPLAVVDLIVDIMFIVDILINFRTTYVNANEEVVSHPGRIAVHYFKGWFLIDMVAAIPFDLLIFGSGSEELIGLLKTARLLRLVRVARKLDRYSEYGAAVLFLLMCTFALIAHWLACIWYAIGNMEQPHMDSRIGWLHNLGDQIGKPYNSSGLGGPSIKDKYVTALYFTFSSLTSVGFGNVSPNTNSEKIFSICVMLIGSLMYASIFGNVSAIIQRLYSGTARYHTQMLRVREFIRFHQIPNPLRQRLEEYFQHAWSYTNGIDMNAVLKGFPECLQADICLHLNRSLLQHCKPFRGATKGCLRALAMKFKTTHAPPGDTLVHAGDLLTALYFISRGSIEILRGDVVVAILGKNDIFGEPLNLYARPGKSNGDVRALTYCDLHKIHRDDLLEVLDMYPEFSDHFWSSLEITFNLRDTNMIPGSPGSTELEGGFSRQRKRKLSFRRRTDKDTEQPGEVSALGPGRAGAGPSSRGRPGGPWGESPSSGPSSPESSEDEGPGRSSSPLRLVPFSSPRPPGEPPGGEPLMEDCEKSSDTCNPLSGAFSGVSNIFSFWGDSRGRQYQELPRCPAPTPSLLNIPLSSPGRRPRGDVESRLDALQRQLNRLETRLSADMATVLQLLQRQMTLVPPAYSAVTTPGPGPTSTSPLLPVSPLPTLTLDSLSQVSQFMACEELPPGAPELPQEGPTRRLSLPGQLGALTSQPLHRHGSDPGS
The compound `CCCN(CCC)C(=O)Cc1c(-c2ccc(Cl)cc2)nc2ccc(Cl)cn12` [Alpidem] gave an IC50 of 20.5 µM. The same measure for `O=C(c1ccc(F)cc1)C1CCN(CCn2c(=S)[nH]c3ccccc3c2=O)CC1` [Altanserin hydrochloride]: 0.817 µM; for `Nc1ccc(C(=O)N2CC3CC(CN(Cc4ccccc4)C3)C2)cc1` [Ambasilide]: 21.3 µM. Compound `CCC(C)(C)c1ccc(CC(C)CN2C[C@@H](C)O[C@@H](C)C2)cc1` (some centres unmarked) [Amorolfine] showed an IC50 of 9.16 µM. With `CCOC(=O)C1(c2ccccc2)CCN(CCc2ccc(N)cc2)CC1` [Anileridine], half-maximal inhibition (IC50) required 18.3 µM. The same measure for `c1ccc(CN(CC2=NCCN2)c2ccccc2)cc1` [Antazoline hydrochloride]: 15.7 µM; for `CCCCN1C(=O)[C@@H]([C@H](O)C2CCCCC2)NC(=O)C12CCN(Cc1ccc(Oc3ccc(C(=O)O)cc3)cc1)CC2` [Aplaviroc hydrochloride]: 17.4 µM. The compound `CCN(CC)CCCN(c1ccccc1)C1Cc2ccccc2C1` [Aprindine hydrochloride] gave an IC50 of 2.79 µM. For `CCN(CC)CCOC(=O)C(C)(c1ccccc1)c1ccccc1` [Aprofene] the value was 9.16 µM; for `CCc1cccc(N(C)C(N)=Nc2cccc3ccccc23)c1` [Aptiganel hydrochloride], 10.3 µM. The same measure for `CN(C)c1ccc(C(=N)c2ccc(N(C)C)cc2)cc1` [Auramine hydrochloride]: 44.8 µM; for `O=C(CCCN1CCN(c2ccccn2)CC1)c1ccc(F)cc1` [Azaperone]: 4.77 µM. For the compound `CC1=C(C(=O)OC(C)C)C(c2cccc([N+](=O)[O-])c2)C(C(=O)OC2CN(C(c3ccccc3)c3ccccc3)C2)=C(N)N1` (centres unmarked) [Azelnidipine], it took 8.99 µM to reach half-maximal inhibition (IC50). The same measure for `CN1CCC(N(Cc2ccccc2)c2ccccc2)CC1` [Bamipine]: 3.94 µM; for `C[C@H]1C[C@H]2[C@@H]3CCC4=CC(=O)C=C[C@]4(C)[C@@]3(Cl)[C@@H](O)C[C@]2(C)[C@@]1(O)C(=O)CO` [Beclomethasone]: 23.9 µM; for `CN1[C@@H]2CC[C@H]1C[C@@H](OC(=O)c1cc(Cl)cc(Cl)c1)C2` [Bemesetron]: 6.01 µM.

In turn, `CCN(CC)CCOC(=O)C(O)(c1ccccc1)c1ccccc1` [Benactyzine] had an IC50 of 11.5 µM. `CC(Cc1cccc(C(F)(F)F)c1)NCCOC(=O)c1ccccc1` (centres unmarked) [Benfluorex hydrochloride]: the IC50 was 9.52 µM. For `O=C(CCCN1CCC(n2c(O)nc3ccccc32)CC1)c1ccc(F)cc1` [Benperidol] the value was 1.76 µM; for `CCc1oc2ccccc2c1C(=O)c1cc(Br)c(O)c(Br)c1` [Benzbromarone], 10.7 µM.

For the compound `c1ccc(CSCc2ccccc2)cc1` [Benzyl sulfide], it took 47 µM to reach half-maximal inhibition (IC50).

In turn, `CCCCCCCCCCCCCC[N+](C)(C)Cc1ccccc1` [Benzyldimethyltetradecylammonium chloride dihydrate] gave an IC50 of 2.05 µM.

Turning to `CCCCCCCCCCCCCCCC[N+](C)(C)Cc1ccccc1` [Benzylhexadecyldimethylammonium chloride], it took 3.94 µM to reach half-maximal inhibition (IC50). The same measure for `c1ccc(C[P+](c2ccccc2)(c2ccccc2)c2ccccc2)cc1` [Benzyltriphenylphosphonium chloride]: 2.27 µM. As to `O=c1[nH]c2ccc([S+]([O-])CCN3CCC(Cc4ccc(F)cc4)CC3)cc2o1` (centres unmarked) [Besonprodil], the IC50 is 4.36 µM. `COC(=O)c1cc(Oc2ccc(Cl)cc2Cl)ccc1[N+](=O)[O-]` [Bifenox] showed a concentration for half-maximal inhibition (IC50) of 23.6 µM. For `c1ccc(-c2ccc(C(c3ccccc3)n3ccnc3)cc2)cc1` (centres unmarked) [Bifonazole] the value was 12.5 µM.

For the compound `CCOCCn1c(C2CCN(CCc3ccc(C(C)(C)C(=O)O)cc3)CC2)nc2ccccc21` [Bilastine], the IC50 is 10.1 µM. For `CCC(C)c1cc([N+](=O)[O-])cc([N+](=O)[O-])c1OC(=O)C=C(C)C` (centres unmarked) [Binapacryl] the value was 30.9 µM.

For the compound `O=C1CC2(CCCC2)CC(=O)N1CCNCC1COc2ccccc2O1` (centres unmarked) [Binospirone mesylate], it took 19 µM to reach half-maximal inhibition (IC50).

Compound `CCCCOCCOC(=O)c1ccccc1C(=O)OCCOCCCC` [Bis(2-butoxyethyl) phthalate] had an IC50 of 20.2 µM.

Regarding `CN(C)c1ccc(C(=O)c2ccc(N(C)C)cc2)cc1` [Bis(4-(dimethylamino)phenyl)methanone], the half-inhibitory concentration (IC50) was 57.1 µM. `Oc1ccc(C(=C(Cl)Cl)c2ccc(O)cc2)cc1` [Bis(4-hydroxyphenyl)-2,2-dichloroethylene] showed an IC50 of 47 µM. The same measure for `CN(C)C(=S)SSC(=S)N(C)C` [Bis(dimethylaminothiocarbonyl) disulfide]: 22.1 µM. `O=S(=O)(C(Cl)(Cl)Cl)C(Cl)(Cl)Cl` [Bis(trichloromethyl)sulfone] gave an IC50 of 18.8 µM. In turn, `O=C1C=CC(=O)N1c1ccc(Cc2ccc(N3C(=O)C=CC3=O)cc2)cc1` [Bismaleimide] displayed an IC50 of 43.6 µM. The same measure for `Oc1ccc(C(c2ccc(O)cc2)(C(F)(F)F)C(F)(F)F)cc1` [Bisphenol AF]: 43.4 µM; for `Cc1ccc(C(=O)Oc2ccc(C(O)CNC(C)(C)C)cc2OC(=O)c2ccc(C)cc2)cc1` (centres unmarked) [Bitolterol]: 5.78 µM. Turning to `CCN1CCN(c2cc(-c3ccc(F)cc3)c3c(n2)CCCCCC3)CC1` [Blonanserin], the IC50 is 3.99 µM. The same measure for `Cc1cc2c(OCC(CNC(C)(C)C)OC(=O)c3ccccc3)cccc2[nH]1` (centres unmarked) [Bopindolol]: 21.3 µM; for `CN(Cc1cc(Br)cc(Br)c1N)C1CCCCC1` [Bromhexine hydrochloride]: 12.5 µM; for `CN(C)CCOC(c1ccccc1)c1ccc(Br)cc1` (centres unmarked) [Bromodiphenhydramine]: 4.09 µM.

Regarding `CCCCCCCC(=O)Oc1c(Br)cc(C#N)cc1Br` [Bromoxynil octanoate], the half-inhibitory concentration (IC50) was 26.4 µM. `CC(C)(Cc1c[nH]c2ccccc12)NCC(O)COc1ccccc1C#N` (centres unmarked) [Bucindolol] showed an IC50 of 8.49 µM. Take `Cc1ccc(Cl)c(OCC(O)CNC(C)(C)C)c1` (centres unmarked) [Bupranolol]: the IC50 was 20.1 µM.

Turning to `CC(C)N1C(=O)N(c2ccccc2)CS/C1=N\C(C)(C)C` [Buprofezin], inhibition was half-maximal at 19.5 µM (IC50). The same measure for `CCCCN(CCCC)CCCOC(=O)c1ccc(N)cc1` [Butacaine]: 14.5 µM; for `CN(Cc1ccc(C(C)(C)C)cc1)Cc1cccc2ccccc12` [Butenafine]: 12 µM; for `OC(C#CCN1CCCC1)(c1ccccc1)c1ccccc1` [Butinoline]: 19 µM. Take `Clc1ccc(CCC(Cn2ccnc2)Sc2c(Cl)cccc2Cl)cc1` (centres unmarked) [Butoconazole nitrate]: the IC50 was 5.35 µM. For `CCC(C)Nc1c([N+](=O)[O-])cc(C(C)(C)C)cc1[N+](=O)[O-]` (centres unmarked) [Butralin] the value was 23.6 µM; for `CC(CC1c2ccccc2CCc2ccccc21)CN(C)C` (centres unmarked) [Butriptyline], 16.9 µM. For `Cc1cc(C(C)(C)C)c(O)c(C(C)(C)C)c1` [Butylated hydroxytoluene] the value was 20.7 µM; for `CCCCOC(=O)COC(=O)c1ccccc1C(=O)OCCCC` [Butylphthalyl butylglycolate], 20.9 µM; for `Nc1ccc(N=Nc2ccccc2)c(N)c1` [C.I. Basic Orange 2], 19.8 µM. For `Cc1cc(-c2ccc(N=Nc3cc(S(=O)(=O)O)c4ccccc4c3N)c(C)c2)ccc1N=Nc1cc(S(=O)(=O)O)c2ccccc2c1N` [C.I. Direct Red 2], it took 21.2 µM to reach half-maximal inhibition (IC50).

`O=C1c2c(O)ccc(Nc3ccc(CCO)cc3)c2C(=O)c2c([N+](=O)[O-])ccc(O)c21` [C.I. Disperse Blue 27] displayed an IC50 of 43.6 µM. For `CCN(CCC#N)c1ccc(N=Nc2c(Cl)cc([N+](=O)[O-])cc2Cl)cc1` [C.I. Disperse Orange 37] the value was 40.4 µM. The same measure for `CCCN(CCC)C(=O)CN` [C.I. Solvent Black 5]: 9.21 µM. The same measure for `O=C1OC2(c3ccccc31)c1ccc(O)c(Br)c1Oc1c2ccc(O)c1Br` [C.I. Solvent Red 72]: 34.7 µM.

For `Cc1cc2c3c(c1)C(c1ccccc1)=N[C@@H](NC(=O)c1ccncc1)C(=O)N3CC2` [CI-1018], the IC50 is 25.5 µM. For the compound `Cc1nccn1-c1ccc(Sc2cccc(C3(C(N)=O)CCOCC3)c2)cc1` [CJ-013610], half-maximal inhibition (IC50) required 47.1 µM.

For `NC(=O)N(O)[C@@H]1C=C[C@H](Oc2cccc(Oc3ccc(F)cc3)c2)C1` [CJ-013790], the IC50 is 38.9 µM.

With `CCOC(=O)NNc1ccc(N(CC)CC(C)O)nn1` (centres unmarked) [Cadralazine], the IC50 was 23.9 µM. The same measure for `CCN(CC)CCNC(C(=O)OCCC(C)C)c1ccccc1` (centres unmarked) [Camylofin]: 6.74 µM; for `N#CC(C#N)=NNc1cccc(Cl)c1` [Carbonyl cyanide chlorophenylhydrazone]: 36 µM. For `CCOC(=O)C(Cl)Cc1cc(-n2nc(C)n(C(F)F)c2=O)c(F)cc1Cl` (centres unmarked) [Carfentrazone-ethyl] the value was 28.6 µM; for `COc1ccc2cc1Oc1ccc(cc1)C[C@H]1c3c(cc4c(c3Oc3cc5c(cc3OC)CCN(C)[C@@H]5C2)OCO4)CCN1C` [Cepharanthine], 10.3 µM. Regarding `ClC1=C(Cl)C2(Cl)C3C(Cl)C(Cl)CC3C1(Cl)C2(Cl)Cl` (centres unmarked) [Chlordane], the IC50 is 30.9 µM. For `CCOP(=S)(OCC)OC(Cl)C(Cl)(Cl)Cl` (centres unmarked) [Chlorethoxyfos] the value was 25.5 µM; for `CCOCn1c(-c2ccc(Cl)cc2)c(C#N)c(Br)c1C(F)(F)F` [Chlorfenapyr], 15.5 µM. With `CC(O)(c1ccc(Cl)cc1)c1ccc(Cl)cc1` [Chlorfenethol], the IC50 is 46.2 µM. The same measure for `CCOC(=O)C(O)(c1ccc(Cl)cc1)c1ccc(Cl)cc1` [Chlorobenzilate]: 33.7 µM. `CC(C)OC(=O)C(O)(c1ccc(Cl)cc1)c1ccc(Cl)cc1` [Chloropropylate] had an IC50 of 22.7 µM. The same measure for `CN(C)CCN(Cc1ccc(Cl)cc1)c1ccccn1` [Chloropyramine hydrochloride]: 2.39 µM. `C[C@@H](NCCCc1cccc(C(F)(F)F)c1)c1cccc2ccccc12` [Cinacalcet hydrochloride]: the IC50 is 12 µM. On to `CC(C(O)c1ccccc1)N(C)C/C=C/c1ccccc1` (centres unmarked) [Cinnamedrine], for which the IC50 was 12 µM.

In general, IC50 refers to the concentration that inhibits the measured activity by half. High values mean weaker potency, low ones greater potency.
